By IC50 is commonly meant the concentration needed to halve the response being measured.

Results on three compounds are retold here after ChEMBL document CHEMBL5154687, “Intramolecular hydrogen bond interruption and scaffold hopping of TMC-5 led to 2-(4-alkoxy-3-cyanophenyl)pyrimidine-4/5-carboxylic acids and 6-(4-alkoxy-3-cyanophenyl)-1,2-dihydro-3H-pyrazolo[3,4-d]pyrimidin-3-ones as potent pyrimidine-based xanthine oxidase inhibitors” (Eur J Med Chem, 2022).

Active and inactive are the calls of the source. No cut-off for these calls is given here.

Test [1] concerns Rattus norvegicus. As to the kind of experiment: Hypouricemic activity in overnight-fasted Sprague-Dawley rat model of Potassium oxonate-induced acute hyperuricemia assessed as decrease in serum uric acid at 10 mg/kg, po administered after potassium oxonate treatment and measured up to 5 hrs relative to control. It is filed as functional, organism-based.
For test [2], the target named is T1, Xanthine dehydrogenase/oxidase (Homo sapiens, UniProt P47989). Nature of the test: Mixed-type inhibition of xanthine oxidase (unknown origin) assessed as Inhibitor dissociation constant using xanthine as substrate incubated for 15 mins followed by substrate addition by UV spectrophotometric analysis. The settings on record: read-out: Kis.
In test [3] the target is T1, Xanthine dehydrogenase/oxidase.
Description: Inhibition of xanthine oxidase (unknown origin) using xanthine as substrate preincubated for 15 mins followed by substrate addition by UV spectrophotometric analysis

T1 sequence (P47989 whole entry): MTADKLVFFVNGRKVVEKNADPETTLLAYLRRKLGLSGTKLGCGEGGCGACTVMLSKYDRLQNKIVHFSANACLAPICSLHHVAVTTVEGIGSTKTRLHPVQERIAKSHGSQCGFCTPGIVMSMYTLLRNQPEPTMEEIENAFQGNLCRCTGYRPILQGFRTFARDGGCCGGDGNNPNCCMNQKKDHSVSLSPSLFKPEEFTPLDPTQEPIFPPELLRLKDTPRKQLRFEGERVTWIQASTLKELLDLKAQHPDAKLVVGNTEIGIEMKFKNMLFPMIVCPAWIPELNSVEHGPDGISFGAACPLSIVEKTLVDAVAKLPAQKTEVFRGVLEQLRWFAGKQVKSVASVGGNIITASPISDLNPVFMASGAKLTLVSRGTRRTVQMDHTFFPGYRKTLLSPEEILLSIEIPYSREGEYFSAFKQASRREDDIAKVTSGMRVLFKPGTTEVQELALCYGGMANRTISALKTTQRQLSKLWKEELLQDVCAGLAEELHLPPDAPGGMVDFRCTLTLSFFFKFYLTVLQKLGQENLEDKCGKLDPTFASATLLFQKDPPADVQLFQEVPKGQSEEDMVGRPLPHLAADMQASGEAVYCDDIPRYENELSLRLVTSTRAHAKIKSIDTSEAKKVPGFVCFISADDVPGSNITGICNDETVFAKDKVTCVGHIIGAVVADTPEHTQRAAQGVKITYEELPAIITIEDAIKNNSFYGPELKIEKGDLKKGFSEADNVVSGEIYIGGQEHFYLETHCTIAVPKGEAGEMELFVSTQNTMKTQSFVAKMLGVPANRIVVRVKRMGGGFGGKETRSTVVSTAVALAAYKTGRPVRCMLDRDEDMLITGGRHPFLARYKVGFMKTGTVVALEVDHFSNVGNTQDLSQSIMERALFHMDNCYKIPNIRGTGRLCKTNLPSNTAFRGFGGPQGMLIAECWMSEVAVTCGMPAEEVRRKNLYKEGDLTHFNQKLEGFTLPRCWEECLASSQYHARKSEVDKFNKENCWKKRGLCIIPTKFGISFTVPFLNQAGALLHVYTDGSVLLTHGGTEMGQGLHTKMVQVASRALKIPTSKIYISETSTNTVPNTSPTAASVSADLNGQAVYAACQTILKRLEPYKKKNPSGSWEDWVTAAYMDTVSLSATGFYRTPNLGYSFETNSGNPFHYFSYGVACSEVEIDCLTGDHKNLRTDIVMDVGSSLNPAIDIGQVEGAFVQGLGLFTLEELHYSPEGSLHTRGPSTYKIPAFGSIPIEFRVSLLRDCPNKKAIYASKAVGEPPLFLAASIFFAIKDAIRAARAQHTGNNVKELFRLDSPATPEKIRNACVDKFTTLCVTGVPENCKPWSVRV

Turning to `CC(C)Oc1ccc(-c2ncc3c(=O)[nH][nH]c3n2)cc1C#N`, in test [1], the result was Active.
Same read-out and setting: the value for `CC(C)Oc1ccc(-c2nccc(C(=O)O)n2)cc1C#N` was “Active”.
With `Cc1nc(-c2ccc(OCC(C)C)c(C#N)c2)sc1C(=O)O` [FEBUXOSTAT], in test [2], the Ki turned out to be 0.9 nM. Besides, the IC50 in test [3] came out at 28 nM.
